Laboratory results: US5681964A, “Permeable, non-irritating prodrugs of nonsteroidal and steroidal agents” (University of Kentucky Research Foundation, priority 1994, dated 1997)
Values after ≈ are worked out from the molar mass of the structure shown. Read-outs that look alike come from different tables or passages of the source.

Assays:
[1] = t1/2 in serum (Table 1); assay type: in vitro ADME
[2] = t1/2 in PB (7.4) (Table 1); assay type: physicochemical; conditions: for half-life: pH 7.4; for t1/2 in PB (7.4): result in words
[3] = Solubility (Table 1); assay type: physicochemical
[4] = test system: rabbit eye; test: irritancy in the rabbit eye, daily drops for seven days; assay type: in vivo; conditions: for degree of irritation to the cornea as compared to flurbiprofen in the acid form: 25 microliters (monoester, flurbiprofen) or 30 microliters (diester) into each eye daily, seven days, slit lamp, electron microscopy; for conversion into the flurbiprofen acid form during transport into the eye: aqueous humor and vitreous humor after seven days
Method: Another experiment was performed with tetraethylene glycol flurbiprofenate and tetraethylene glycol bis-flurbiprofenate to determine the irritancy of these prodrugs in the rabbit eye.
25 microliters of tetraethylene flurbiprofenate were dropped into each eye of two rabbits each day for seven days. Also, 30 microliters of tetraethylene glycol bis-flurbiprofenate was dropped into each eye of two rabbits each day for 7 days. A control using 25 microliters of flurbiprofen was dropped into each eye of two rabbits for seven days. Each morning the rabbit's eyes were examined by slit lamp for evidence of cornea damage and irritation. After seven days the animals were sacrificed and samples of the aqueous humor and vitreous humor were obtained for analysis of flurbiprofen and a flurbiprofen ester. The eyes were also examined by electron microscopy. […] The test was repeated using 10 microliters of each of the substances each day for seven days with similar results.

[5] = test system: Salmonella; conditions: Ames type assays and chronic exposure studies; cited from earlier work
[6] = animal and human experiments; cited from earlier work
[7] = test system: skin; conditions: cited from earlier work
[8] = man; cited from earlier work
[9] = test system: cornea; conditions: in vitro; cited from earlier work
[10] = applied for treatment of inflammation; cited from earlier work
[11] = test system: cornea epithelium; test: differential scanning calorimetry of cornea epithelium of treated enucleated albino rabbit eyes
Method: The reduced cornea damage by polyethylene glycol flurbiprofenate and bis-flurbiprofenate prodrugs in albino rabbit eyes was assessed by differential scanning calorimetry. Tests were conducted to investigate the effects of flurbiprofen and the polyethylene glycol flurbiprofen ester and the diester prodrugs on the cornea epithelium. […] The effects of these drugs on the molecular structure of the cornea epithelium were assessed by differential scanning calorimetry. Fresh enucleated albino rabbit eyes were treated in solutions and also in suspensions of flurbiprofen and also in solutions and suspensions of the polyethylene glycol esters and diesters of flurbiprofen in isotonic glutathione buffered ringer solution for 10 minutes. The cornea epithelium was then scraped from the corneas and immediately analyzed by differential scanning calorimetry over the range of 40°-110° C.
Whenever a normal rabbit's cornea epithelium was analyzed a large endothermic transition at 64°±2° C. was observed. It has been established by previous work that this particular peak which was observed was due to a lipid.backslash.protein phase transition.

[12] = PB (7.4), read-out: t1/2 in PB (7.4) (converted)

| half-life ([1]; read-out: t1/2 in serum) [h] | solubility ([3]; read-out: Solubility) [µg/mL] | t1/2 in PB (7.4) ([2]; PB (7.4)) | Compound | further results |
| --- | --- | --- | --- | --- |
| 0.75 | 135 ± 4 (≈ 359 µM) | – | CC(C(=O)OCCOCCOCCO)c1ccc(-c2ccccc2)c(F)c1 (stereo not drawn) [Compound G-60] | half-life [2, 12]: 175 h |
| 0.0833 | 1120 ± 31 (≈ 2740 µM) | – | COc1ccc2cc(C(C)C(=O)OCCOCCOCCOCCO)ccc2c1 (stereo not drawn) [Compound G-167, monoester of naproxen and tetraethylene glycol] | half-life [2, 12]: 300 h |
| 0.967 | 553 ± 27 (≈ 1740 µM) | – | COc1ccc2cc(C(C)C(=O)OCCOCCO)ccc2c1 (stereo not drawn) [Compound G-195.1] | half-life [2, 12]: 80 h |
| 1.25 | < 0.1 | low solubility | COc1ccc2cc(C(C)C(=O)OCCOCCOC(=O)C(C)c3ccc4cc(OC)ccc4c3)ccc2c1 (stereo not drawn) [Compound G-195.2, diester of naproxen and diethylene glycol] | – |
| 0.433 | < 0.1 | very slow | COc1ccc2cc(C(C)C(=O)OCCOCCOCCOCCOC(=O)C(C)c3ccc4cc(OC)ccc4c3)ccc2c1 (stereo not drawn) [Compound G-219.2, diester of naproxen and tetraethylene glycol] | – |
| 0.833 | < 0.1 | very slow | COc1ccc2cc(C(C)C(=O)OCCOCCOCCOCCOCCOCCOC(=O)C(C)c3ccc4cc(OC)ccc4c3)ccc2c1 (stereo not drawn) [Compound G-220.2, diester of naproxen and hexaethylene glycol] | – |
| 2.78 | < 0.1 | very slow | CC(C(=O)OCCOCCOCCOCCOCCOCCOC(=O)C(C)c1ccc(-c2ccccc2)c(F)c1)c1ccc(-c2ccccc2)c(F)c1 (stereo not drawn) [TC-242.1, hexaethylene glycol bis-flurbiprofenate] | – |

Second part, the compound before the results:

| Compound | half-life ([1]; read-out: t1/2 in serum) [h] | solubility ([3]; read-out: Solubility) [µg/mL] | t1/2 in PB (7.4) ([2]; PB (7.4)) | further results |
| --- | --- | --- | --- | --- |
| COc1ccc2cc(C(C)C(=O)OCCOCCOCCO)ccc2c1 (stereo not drawn) [Compound G-192.1] | 0.217 | 943 ± 25 (≈ 2600 µM) | – | half-life [2, 12]: 230 h |
| COc1ccc2cc(C(C)C(=O)OCCOCCOCCOC(=O)C(C)c3ccc4cc(OC)ccc4c3)ccc2c1 (stereo not drawn) [Compound G-192.2] | 0.833 | < 0.1 | low solubility | – |
| CC1(C)O[C@@H]2C[C@H]3[C@@H]4CCC5=CC(=O)C=C[C@]5(C)[C@@]4(F)[C@@H](O)C[C@]3(C)[C@]2(C(=O)COC(=O)OCCOCCOCCOCCO)O1 [Compound G-196.1, carbonate linked ester of triamcinolone acetonide and tetraethylene glycol] | – | – | – | half-life [1]: 3.8 h; half-life ([2]; pb): 136 h; solubility [3]: 391 ± 49 µg/mL (≈ 597 µM) |
| CC1(C)O[C@@H]2C[C@H]3[C@@H]4CCC5=CC(=O)C=C[C@]5(C)[C@@]4(F)[C@@H](O)C[C@]3(C)[C@]2(C(=O)COC(=O)OCCOCCO)O1 [Compound G-197.1, carbonate linked ester of triamcinolone acetonide and diethylene glycol] | – | – | – | half-life [1]: 0.167 h; half-life ([2]; pb): 101 h; solubility [3]: 74 ± 3 µg/mL (≈ 131 µM) |
| CC(C(=O)OCCOCCOCCOCCO)c1ccc(-c2ccccc2)c(F)c1 (stereo not drawn) [Compound G-202.1, tetraethylene glycol 2-(2-fluoro-4-biphenylyl)propionate] | 0.533 | 228 ± 5 (≈ 542 µM) | – | half-life [2, 12]: 144 h; degree of irritation to the cornea as compared to flurbiprofen in the acid form [4]: significantly reduced; conversion into the flurbiprofen acid form during transport into the eye [4]: converted into the flurbiprofen acid form during transport into the eye |
| CC(C(=O)OCCOCCOCCOCCOC(=O)C(C)c1ccc(-c2ccccc2)c(F)c1)c1ccc(-c2ccccc2)c(F)c1 (stereo not drawn) [Compound G-202.2, tetraethylene glycol bis-2-(2-fluoro-4-biphenylyl)propionate] | 3.67 | < 0.1 | low solubility | degree of irritation to the cornea as compared to flurbiprofen in the acid form [4]: significantly reduced; conversion into the flurbiprofen acid form during transport into the eye [4]: converted into the flurbiprofen acid form during transport into the eye |
| COc1ccc2cc(C(C)C(=O)OCCOCCOCCOCCOCCOCCO)ccc2c1 (stereo not drawn) [Compound G-220.1] | 0.0617 | 6430 ± 617 (≈ 13000 µM) | several days | – |
| CN1CCCC1=O [N-methyl-2-pyrrolidone] | – | – | – | toxicity [5]: have not revealed any significant toxicity; irritation or sensitization potential [6]: very little irritation or sensitization potential; penetration enhancement [7]: effective penetration enhancer |
| CC(C(=O)OCCOCCOCCOCCOCCOCCO)c1ccc(-c2ccccc2)c(F)c1 (stereo not drawn) [TC-242.2, hexaethylene glycol flurbiprofenate] | 0.367 | 445 ± 34 (≈ 875 µM) | several days | – |
| CC(C(=O)O)c1ccc(-c2ccccc2)c(F)c1 (stereo not drawn) [flurbiprofen, 2(2-fluoro-4-biphenylyl)propionic acid] | – | – | – | irritation [8]: irritating in man; cornea barrier function [9]: impairs cornea barrier function in vitro; local irritation [10]: produces local irritation; normal protein/lipid structure of cornea epithelium [11]: substantially total breakdown of the normal protein/lipid structure |
| benzalkonium chloride | – | – | – | intensity of the phase transition peak of cornea epithelium by DSC ([11]; compounds known to damage the cornea): greatly reduce the intensity of this observed peak |
